Test results reported in ChEMBL document CHEMBL1151167, “New marine sesquiterpenoids and diterpenoids from the Okinawan soft coral Clavularia koellikeri” (2004).
Values after ≈ are worked out from the molar mass of the structure shown.

How the values were obtained:
Type in all cases: functional
LOX IMVI = assay: Cytotoxicity against human LOXIMVI cells after 48 hrs by SRB assay
SNB-75 = assay: Cytotoxicity against human SNB75 cells after 48 hrs by SRB assay; settings: SNB-75, 48 h
NCI-H522 = assay: Cytotoxicity against human NCI-H522 cells after 48 hrs by SRB assay; settings: NCI-H522, 48 h
MKN-74 = assay: Cytotoxicity against human MKN74 cells after 48 hrs by SRB assay; settings: MKN-74, 48 h
SF-539 = assay: Cytotoxicity against human SF539 cells after 48 hrs by SRB assay; settings: SF-539, 48 h

`C/C1=C\CC2=CC[C@@H](C(C)C)[C@]2(C)C[C@@H](O)/C(C)=C/CC1` gave a GI50 (LOX IMVI) of 4.9 µg/mL (≈ 17 µM), a GI50 (SNB-75) of 4.9 µg/mL (≈ 17 µM) and a GI50 (NCI-H522) of 5.2 µg/mL (≈ 18 µM). For the same compound, the GI50 (MKN-74) was 5.2 µg/mL (≈ 18 µM) and the GI50 (SF-539) was 4.9 µg/mL (≈ 17 µM).
